Assays:
A673 = experiment: Inhibition of cell proliferation of human A673 cells incubated for 72 hrs by CyQUANT assay; type: functional, cell-based; conditions: A673, 72 h
HCC70 = experiment: Inhibition of cell proliferation of human HCC70 cells incubated for 72 hrs by CyQUANT assay; type: functional, cell-based; conditions: HCC70, 72 h

SMILES | IC50 (A673) | IC50 (HCC70)
FC(F)(F)c1cnc(N[C@H]2CCCNC2)nc1-c1n[nH]c2ccccc12 | 20 nM | –
Clc1cnc(N[C@@H]2CCCNC2)nc1-c1c[nH]c2ccccc12 | 20 nM | –
Clc1cnc(N[C@H]2CCCNC2)nc1-c1c[nH]c2ccccc12 | ≤ 20 nM | –
CNC(=O)[C@H]1CNC[C@H](Nc2ncc(C(F)(F)F)c(-c3c[nH]c4ccccc34)n2)C1 | 20 nM | –
CN1CCC[C@H](Nc2ncc(C(F)(F)F)c(-c3c[nH]c4cc(S(=O)(=O)N5CCC(C)(O)C5)ccc34)n2)C1 (some centres undefined) | – | 1000 nM
Clc1cnc(N[C@H]2CCCNC2)nc1-c1cn(-c2ccccc2)c2ccccc12 | 200 nM | –
O[C@@H]1CCNC[C@H]1Nc1ncc(Cl)c(-c2c[nH]c3ccccc23)n1 | 200 nM | –
N#Cc1ccc2c(-c3nc(N[C@H]4CCCNC4)ncc3Cl)c[nH]c2c1 | < 20 nM | < 100 nM
Cn1cc(-c2ccc3[nH]cc(-c4nc(N[C@H]5CCCNC5)ncc4C(F)(F)F)c3c2)cn1 | 200 nM | –
CCc1cnc(N[C@H]2CCCNC2)nc1-c1c[nH]c2c(C)cccc12 | 20 nM | –
FC(F)(F)c1cnc(N[C@H]2CCCNC2)nc1-c1c[nH]c2cnc(Cl)cc12 | 20 nM | 100 nM
COCCn1cc(-c2nc(N[C@H]3CCCNC3)ncc2C(F)(F)F)c2ccccc21 | 200 nM | –
Fc1cncc(-c2ccc3c(-c4nc(N[C@H]5CCCNC5)ncc4C(F)(F)F)c[nH]c3c2)c1 | – | 100 nM
Fc1cccc2c(-c3nc(N[C@H]4CCCNC4)ncc3Cl)c[nH]c12 | < 20 nM | 100 nM
CC(=O)c1cccc2c(-c3nc(N[C@H]4CCCNC4)ncc3Cl)c[nH]c12 | < 20 nM | –
CCc1cnc(N[C@@H]2CCCNC2)nc1-c1n[nH]c2ncccc12 | 20 nM | –
Fc1cccc2c(-c3nc(N[C@H]4CCCNC4)ncc3Cl)n[nH]c12 | < 20 nM | –
FC(F)(F)c1cnc(N[C@H]2CNC[C@@H](c3nnc4ccccn34)C2)nc1-c1c[nH]c2ccccc12 | 200 nM | –
Cc1[nH]ncc1-c1cccc2c(-c3nc(N[C@@H]4CCCNC4)ncc3C(F)(F)F)c[nH]c12 | < 20 nM | 1000 nM
CCc1cnc(N[C@H]2CCCNC2)nc1-c1c[nH]c2ncc(F)cc12 | 200 nM | –
N#C[C@@H]1CCN(C(=O)c2ccc3c(-c4nc(N[C@H]5CCCNC5)ncc4C(F)(F)F)c[nH]c3c2)C1 | 20 nM | 100 nM
Cc1[nH]c2ccccc2c1-c1nc(N[C@H]2CCCNC2)ncc1Cl | 20 nM | –
FC(F)(F)c1cnc(N[C@H]2CCCNC2)nc1-c1c[nH]c2cc(-c3cn[nH]c3)ccc12 | 20 nM | –

SMILES | IC50 (A673) | IC50 (HCC70)
CCOP(=O)(OCC)c1ccc2[nH]cc(-c3nc(N[C@H]4CCCNC4)ncc3C(F)(F)F)c2c1 | 200 nM | –
FC(F)(F)c1cnc(N[C@H]2CCCNC2)nc1-c1c[nH]c2ccc(Cl)cc12 | < 20 nM | –
Cc1cccc2c(-c3nc(N[C@H]4CCCNC4)ncc3F)c[nH]c12 | 200 nM | –
C[C@H]1CCNC[C@@H]1Nc1ncc(Cl)c(-c2c[nH]c3ccccc23)n1 | 200 nM | –
C[C@H](O)c1cnc(N[C@H]2CCCNC2)nc1-c1c[nH]c2ccccc12 | 200 nM | –
N#Cc1cccc2c(-c3nc(N[C@H]4CCCNC4)ncc3C(F)(F)F)c[nH]c12 | < 20 nM | –
C[C@@H]1CNC[C@@H](Nc2ncc(Cl)c(-c3c[nH]c4ccccc34)n2)C1 | 20 nM | –
Clc1cnc(NC2(c3ccccc3)CCCNC2)nc1-c1c[nH]c2ccccc12 (centres undefined) | 200 nM | –
CC1(C)CCNC[C@H]1Nc1ncc(C(F)(F)F)c(-c2c[nH]c3ccccc23)n1 | 200 nM | –
Fc1cccc2c(-c3nc(N[C@H]4CCCNC4)ncc3C(F)(F)F)n[nH]c12 | < 20 nM | –
F[C@@H]1CCNC[C@H]1Nc1ncc(Cl)c(-c2c[nH]c3ccccc23)n1 | 20 nM | –
Clc1cnc(N[C@H]2CCCNC2)nc1-c1c[nH]c2c(N3CCOCC3)cccc12 | 20 nM | –
COCCn1cc(-c2nc(N[C@H]3CCCNC3)ncc2Cl)c2ccccc21 | 200 nM | –
CC1CCC(Nc2ncc(Cl)c(-c3c[nH]c4ccccc34)n2)CN1 (centres undefined) | 20 nM | –
Clc1cnc(NC2CNCCC2c2ccccc2)nc1-c1c[nH]c2ccccc12 (centres undefined) | 200 nM | –
Fc1cnc2[nH]cc(-c3nc(N[C@H]4CCCNC4)ncc3C(F)(F)F)c2c1 | < 20 nM | < 100 nM
Cc1ccc2[nH]cc(-c3nc(N[C@H]4CCCNC4)ncc3Cl)c2c1 | 200 nM | –
CNC(=O)[C@@H]1CNC[C@@H](Nc2ncc(C(F)(F)F)c(-c3c[nH]c4ccccc34)n2)C1 | 200 nM | –
Cc1cccc2c(-c3nc(N[C@H]4CCCNC4)ncc3Cl)c[nH]c12 | < 20 nM | < 100 nM
Cn1cc(-c2ccc3c(-c4nc(N[C@H]5CCCNC5)ncc4C(F)(F)F)c[nH]c3c2)cn1 | < 20 nM | –
CNC(=O)[C@@H]1CNC[C@H](Nc2ncc(C(F)(F)F)c(-c3c[nH]c4ccccc34)n2)C1 | 20 nM | –
Cc1cnc(N[C@H]2CCCNC2)nc1-c1c[nH]c2ccccc12 | 20 nM | –
CC(C)n1cc(-c2nc(N[C@H]3CCCNC3)ncc2Cl)c2ccccc21 | 200 nM | –

SMILES | IC50 (A673) | IC50 (HCC70)
FC(F)(F)c1cnc(N[C@H]2CCCNC2)nc1-c1c[nH]c2cc(-c3cccc(Oc4ccccc4)c3)ccc12 | – | 1000 nM
CS(=O)(=O)c1cccc2c(-c3nc(N[C@H]4CCCNC4)ncc3C(F)(F)F)c[nH]c12 | < 20 nM | < 100 nM
Cc1cccc2c(-c3nc(N[C@H]4CCCNC4)ncc3CC(C)C)c[nH]c12 | 200 nM | –
CC(C)c1cnc(N[C@H]2CCCNC2)nc1-c1c[nH]c2ccccc12 | 200 nM | 1000 nM
FC(F)(F)c1cnc(N[C@H]2CCCNC2)nc1-c1c[nH]c2ccc(-c3cn[nH]c3)cc12 | 200 nM | –
Clc1cnc(N[C@H]2CCCNC2)nc1-c1c[nH]c2ccncc12 | 20 nM | –
FC(F)(F)c1cnc(N[C@H]2CCCNC2)nc1-c1c[nH]c2c(Cl)cccc12 | < 20 nM | –
CCc1cnc(N[C@H]2CCCNC2)nc1-c1n[nH]c2ccccc12 | 20 nM | –
O=C(O)c1cccc2c(-c3nc(N[C@H]4CCCNC4)ncc3Cl)c[nH]c12 | 200 nM | –
OC1CCC(c2cccc3c(-c4nc(N[C@H]5CCCNC5)ncc4C(F)(F)F)c[nH]c23)CC1 (some centres undefined) | < 20 nM | –
FC(F)(F)Cc1cnc(N[C@H]2CCCNC2)nc1-c1n[nH]c2ccccc12 | 20 nM | –
Clc1cnc(N[C@H]2CCCNC2)nc1-c1c[nH]c2cccnc12 | 20 nM | –
CNC(=O)c1cccc2c(-c3nc(N[C@H]4CCCNC4)ncc3C(F)(F)F)cn(C)c12 | – | 1000 nM
Clc1cnc(N[C@H]2CCCNC2)nc1-c1c[nH]c2ccc(N3CCOCC3)cc12 | 20 nM | –
CC1NCCCC1Nc1ncc(Cl)c(-c2c[nH]c3ccccc23)n1 (centres undefined) | 20 nM | –
CNC(=O)[C@H]1CNC[C@@H](Nc2ncc(C(F)(F)F)c(-c3c[nH]c4ccccc34)n2)C1 | 200 nM | –
Clc1cnc(N[C@H]2CCCNC2)nc1-c1c[nH]c2ncccc12 | 20 nM | < 100 nM
CCOP(=O)(OCC)c1ccc2c(-c3nc(N[C@H]4CCCNC4)ncc3C(F)(F)F)c[nH]c2c1 | 20 nM | –
Clc1cnc(N[C@H]2CCCNC2)nc1-c1cnn2ccccc12 | 20 nM | 100 nM
N#Cc1ccc2c(-c3nc(N[C@@H]4CCCNC4)ncc3C(F)(F)F)c[nH]c2c1-c1ccnnc1 | < 20 nM | < 100 nM
O[C@H]1CC[C@@H](c2cccc3c(-c4nc(N[C@H]5CCCNC5)ncc4C(F)(F)F)c[nH]c32)CC1 | 200 nM | –
CC1(Nc2ncc(Cl)c(-c3c[nH]c4ccccc34)n2)CCCNC1 (centres undefined) | 200 nM | –
CNC(=O)c1ccc2c(-c3nc(N[C@H]4CCCNC4)ncc3C(F)(F)F)c[nH]c2c1 | 20 nM | –

SMILES | IC50 (A673) | IC50 (HCC70)
CNC(=O)c1cccc2c(-c3nc(N[C@H]4CCCNC4)ncc3C(F)(F)F)c[nH]c12 | 20 nM | 100 nM
N#Cc1ccc2[nH]cc(-c3nc(N[C@H]4CCCNC4)ncc3C(F)(F)F)c2c1 | 200 nM | –
Fc1cc2[nH]nc(-c3nc(N[C@H]4CCCNC4)ncc3C(F)(F)F)c2cc1F | < 20 nM | –
C[C@@H](O)c1cnc(N[C@H]2CCCNC2)nc1-c1c[nH]c2ccccc12 | 200 nM | –
FC(F)(F)c1cnc(N[C@@H]2CNC[C@H](c3nnc4ccccn34)C2)nc1-c1c[nH]c2ccccc12 | ≤ 20 nM | –
Brc1cnc(N[C@@H]2CCCNC2)nc1-c1c[nH]c2ccccc12 | < 20 nM | –
Cc1cccc2c(-c3nc(N[C@H]4CCCNC4)ncc3C(F)(F)F)c[nH]c12 | < 20 nM | –
CCc1cnc(N[C@H]2CCCNC2)nc1-c1c[nH]c2ccccc12 | 20 nM | –
Fc1ccc2[nH]cc(-c3nc(N[C@H]4CCCNC4)ncc3Cl)c2c1 | 20 nM | 100 nM
C[C@H]1CCNC[C@@H]1Nc1ncc(C(F)(F)F)c(-c2c[nH]c3ccccc23)n1 | – | 1000 nM
O=C(c1ccc2c(-c3nc(N[C@H]4CCCNC4)ncc3C(F)(F)F)c[nH]c2c1)N1CC[C@](O)(C(F)(F)F)C1 (single isomer, unassigned) | – | 1000 nM
CC1CCNCC1Nc1ncc(C(F)(F)F)c(-c2c[nH]c3ccccc23)n1 (single isomer, unassigned) | – | 100 nM
CC1(O)CCN(C(=O)c2ccc3c(-c4nc(N[C@H]5CCCNC5)ncc4C(F)(F)F)c[nH]c3c2)C1 (single isomer, unassigned) | 200 nM | 100 nM
CC1(C)CCNC[C@@H]1Nc1ncc(C(F)(F)F)c(-c2c[nH]c3ccccc23)n1 (single isomer, unassigned) | 20 nM | –
CC[C@@]1(O)CCN(C(=O)c2ccc3c(-c4nc(N[C@H]5CCCNC5)ncc4C(F)(F)F)c[nH]c3c2)C1 (single isomer, unassigned) | – | 1000 nM
N#Cc1ccc2c(-c3nc(N[C@@H]4CCC5(CCC5)NC4)ncc3C(F)(F)F)c[nH]c2c1 (single isomer, unassigned) | – | 100 nM
COC1CCN(C(=O)c2ccc3c(-c4nc(N[C@H]5CCCNC5)ncc4C(F)(F)F)c[nH]c3c2)C1 (single isomer, unassigned) | – | 100 nM
N#Cc1ccc2c(-c3nc(N[C@H]4CCC5(CCC5)NC4)ncc3C(F)(F)F)c[nH]c2c1 (single isomer, unassigned) | – | 1000 nM
O=C(c1ccc2c(-c3nc(N[C@H]4CCCNC4)ncc3C(F)(F)F)c[nH]c2c1)N1CC[C@@](O)(C(F)(F)F)C1 (single isomer, unassigned) | – | 100 nM
CC[C@]1(O)CCN(C(=O)c2ccc3c(-c4nc(N[C@H]5CCCNC5)ncc4C(F)(F)F)c[nH]c3c2)C1 (single isomer, unassigned) | – | 100 nM

Reference: ChEMBL document CHEMBL4742388, “Inhibitors of cyclin-dependent kinase 7 (cdk7)” (2019)
